Measured values from patent US6984649B1, “Pyridine derivatives” (Bayer Aktiengesellschaft, priority 2000, dated 2006).

These compounds were tested on A549 human lung epithelium cell line (assay: RANTES production in response to TNF-α from A549 cells). Conditions: A549 cells, 100 ng/ml TNF-α, read-out: Cellular activity grade (A549) (Cellular IC50).
Format: cell-based
In short: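 Cells (4×10^4/well) in D-MEM/10% FCS preincubated 1 h at 37 °C with compound in 1% DMSO, then stimulated with 100 ng/ml TNF-α for 24 h. Supernatant RANTES quantified by Eu-labelled sandwich immunoassay (time-resolved fluorescence, ex 340/em 615 nm) against recombinant human RANTES standard.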

Row | IC50 | Compound
1 | < 1000 nM | N#Cc1c(C2CCCNC2)cc(-c2c(O)cccc2OCc2ccc(Br)cc2)nc1N (centres unmarked) [Example 2-39]
2 | < 1000 nM | COC(=O)c1ccc(COc2cccc(O)c2-c2cc(C3CCCNC3)c(C#N)c(N)n2)cc1 (centres unmarked) [Example 2-38]
3 | < 1000 nM | Cc1ccc(COc2cccc(O)c2-c2cc(C3CCCNC3)c(C#N)c(N)n2)cc1 (centres unmarked) [Example 2-35]
4 | < 1000 nM | N#Cc1c(C2CCCNC2)cc(-c2c(O)cccc2OCc2ccccc2F)nc1N (centres unmarked) [Example 2-37]
5 | < 1000 nM | N#Cc1c(C2CCCNC2)cc(-c2c(O)cccc2OCc2ccc(C(F)(F)F)cc2)nc1N (centres unmarked) [Example 2-36]

Same assay, conditions: Homo sapiens, A549, A549 cells, 100 ng/ml TNF-α, read-out: Cellular activity grade (A549) (Cellular IC50)

Row | Compound | IC50
6 | N#Cc1c(C2CCCNC2)cc(-c2c(O)cccc2OCc2ccccc2-c2ccccc2)nc1N (centres unmarked) [Example 2-22] | 1000 to 10000 nM
7 | N#Cc1c(C2CCCNC2)cc(-c2c(O)cccc2OCCc2ccccc2)nc1N (centres unmarked) [Example 2-41] | < 1000 nM
8 | CN1CCCC(c2cc(-c3ccccc3O)nc(N)c2C#N)C1 (centres unmarked) [Example 3-03] | < 1000 nM
9 | CCCN1CCCC(c2cc(-c3ccccc3O)nc(N)c2C#N)C1 (centres unmarked) [Example 3-04] | 1000 to 10000 nM
10 | COc1ccc(CN2CCCC(c3cc(-c4c(O)cccc4O)nc(N)c3C#N)C2)cc1 (centres unmarked) [Example 3-07] | 1000 to 10000 nM
11 | CC(=O)NCc1c(C2CCNCC2)cc(-c2c(O)cccc2OCC2CC2)nc1N [Example 23-07] | < 1000 nM
12 | N#Cc1c(C2CCCNC2)cc(-c2c(O)cccc2OCCC(c2ccccc2)c2ccccc2)nc1N (centres unmarked) [Example 2-46] | 1000 to 10000 nM
13 | N#Cc1c(C2CCCNC2)cc(-c2c(O)cccc2OCc2ccncc2)nc1N (centres unmarked) [Example 2-44] | < 1000 nM
14 | Nc1nc(-c2c(O)cccc2OCC2CC2)cc(C2CCNCC2)c1CO [Example 12-05] | < 1000 nM
15 | Nc1nc(-c2c(O)cccc2OCC2CC2)cc(C2CCCNC2)c1CNC(=O)Nc1ccccc1 (centres unmarked) [Example 23-14] | < 1000 nM
16 | N#Cc1c(C2CCCNC2)cc(-c2c(O)cccc2OCc2ccc(Cl)c(Cl)c2)nc1N (centres unmarked) [Example 2-05] | 1000 to 10000 nM
17 | N#Cc1c(C2CCCNC2)cc(-c2c(O)cccc2OCC(=O)c2ccccc2)nc1N (centres unmarked) [Example 2-51] | < 1000 nM
18 | N#Cc1c(C2CCCN(Cc3ccccc3)C2)cc(-c2ccccc2O)nc1N (centres unmarked) [Example 3-05] | < 1000 nM
19 | COc1ccc(CN2CCCC(c3cc(-c4c(O)cccc4OCC4CC4)nc(N)c3C#N)C2)cc1 (centres unmarked) [Example 3-08] | > 10000 nM
20 | Nc1nc(-c2c(O)cccc2OCC2CC2)cc(C2CCCNC2)c1CNC(=S)Nc1ccccc1 (centres unmarked) [Example 23-15] | < 1000 nM
21 | N#Cc1c(C2CCCNC2)cc(-c2c(O)cccc2OCc2cccc3ccccc23)nc1N (centres unmarked) [Example 2-32] | 1000 to 10000 nM
22 | CC(C)(C)COC(=O)NCc1c(C2CCCNC2)cc(-c2c(O)cccc2OCC2CC2)nc1N (centres unmarked) [Example 23-10] | < 1000 nM
23 | CC(C)(C)c1ccc(COc2cccc(O)c2-c2cc(C3CCCNC3)c(C#N)c(N)n2)cc1 (centres unmarked) [Example 2-31] | < 1000 nM
24 | Nc1nc(-c2ccccc2O)cc(C2CCCNC2)c1CNC(=O)C1CC1 (centres unmarked) [Example 23-05] | < 1000 nM

Row | Compound | IC50
25 | N#Cc1c(C2CCCNC2)cc(-c2c(O)cccc2OCC2CCCCC2)nc1N (centres unmarked) [Example 2-53] | < 1000 nM
26 | N#Cc1c(C2CCCNC2)cc(-c2c(O)cccc2OCc2ccc(-c3ccccc3)cc2)nc1N (centres unmarked) [Example 2-33] | 1000 to 10000 nM
27 | N#Cc1c(C2CCCNC2)cc(-c2c(O)cccc2OCc2ccc(Cl)cc2Cl)nc1N (centres unmarked) [Example 2-34] | 1000 to 10000 nM
28 | CC(C)COC(=O)NCc1c(C2CCCNC2)cc(-c2c(O)cccc2OCC2CC2)nc1N (centres unmarked) [Example 23-09] | < 1000 nM
29 | CC(C)CCCOc1cccc(O)c1-c1cc(C2CCNCC2)c(CO)c(N)n1 [Example 12-07] | < 1000 nM
30 | CCCOc1cccc(O)c1-c1cc(C2CCNCC2)c(CO)c(N)n1 [Example 12-06] | < 1000 nM
31 | N#Cc1c(C2CCCN(CCc3ccccc3)C2)cc(-c2ccccc2O)nc1N (centres unmarked) [Example 3-06] | 1000 to 10000 nM
32 | N#Cc1c(C2CCCNC2)cc(-c2c(O)cccc2OCc2ccc(Br)cc2)nc1N (centres unmarked) [Example 2-24] | < 1000 nM
33 | N#Cc1c(C2CCNCC2)cc(-c2c(O)cccc2OCCc2ccccc2)nc1N [Example 2-52] | < 1000 nM
34 | N#Cc1c(C2CCCNC2)cc(-c2c(O)cccc2OCCCc2ccccc2)nc1N (centres unmarked) [Example 2-50] | < 1000 nM
35 | N#Cc1c(CCN)cc(-c2c(O)cccc2OCc2ccccc2)nc1N [Example 2-40] | < 1000 nM
36 | N#Cc1c(C2CCCNC2)cc(-c2c(O)cccc2OCc2csc3ccc(Cl)cc23)nc1N (centres unmarked) [Example 2-47] | 1000 to 10000 nM
37 | COC(=O)c1ccc(COc2cccc(O)c2-c2cc(C3CCCNC3)c(C#N)c(N)n2)cc1 (centres unmarked) [Example 2-30] | < 1000 nM
38 | N#Cc1c(C2CCCNC2)cc(-c2c(O)cccc2OCc2ccc3ccccc3n2)nc1N (centres unmarked) [Example 2-45] | < 1000 nM
39 | N#Cc1c(C2CCCNC2)cc(-c2c(O)cccc2OCc2cccnc2)nc1N (centres unmarked) [Example 2-43] | < 1000 nM
40 | CCC(=O)NCc1c(C2CCCNC2)cc(-c2ccccc2O)nc1N (centres unmarked) [Example 23-06] | 1000 to 10000 nM
41 | N#Cc1c(C2CCNCC2)cc(-c2c(O)cccc2OCc2ccccc2)nc1N [Example 2-23] | 1000 to 10000 nM
42 | CCCCCOc1cccc(O)c1-c1cc(C2CCCNC2)c(C#N)c(N)n1 (centres unmarked) [Example 2-60] | < 1000 nM
43 | N#Cc1c(C2CCCNC2)cc(-c2c(O)cccc2OCc2ccccn2)nc1N (centres unmarked) [Example 2-42] | 1000 to 10000 nM

Continued, values first:

Row | IC50 | Compound
44 | < 1000 nM | NC(=O)NCc1c(C2CCCNC2)cc(-c2c(O)cccc2OCC2CC2)nc1N (centres unmarked) [Example 23-13]
45 | < 1000 nM | Cc1cc(COc2cccc(O)c2-c2cc(C3CCCNC3)c(C#N)c(N)n2)no1 (centres unmarked) [Example 2-49]
46 | 1000 to 10000 nM | N#Cc1c(C2CCCNC2)cc(-c2c(O)cccc2OCc2ccc(F)c(F)c2)nc1N (centres unmarked) [Example 2-29]
47 | < 1000 nM | N#Cc1c(C2CCCNC2)cc(-c2c(O)cccc2OCc2ccccc2F)nc1N (centres unmarked) [Example 2-25]
48 | < 1000 nM | N#Cc1c(C2CCCNC2)cc(-c2c(O)cccc2OCc2cccc(F)c2)nc1N (centres unmarked) [Example 2-27]
49 | < 1000 nM | CCCNC(=O)NCc1c(C2CCCNC2)cc(-c2c(O)cccc2OCC2CC2)nc1N (centres unmarked) [Example 23-12]
50 | < 1000 nM | CN(C)C(=O)NCc1c(C2CCCNC2)cc(-c2c(O)cccc2OCC2CC2)nc1N (centres unmarked) [Example 23-11]
51 | < 1000 nM | O=C1Nc2nc(-c3c(O)cccc3OCc3ccccc3)cc(C3CCCNC3)c2CO1 (centres unmarked) [Example 18-10]
52 | < 1000 nM | CC(C)CCCOc1cccc(O)c1-c1cc(C2CCNCC2)c2c(n1)NC(=O)OC2 [Example 18-15]
53 | < 1000 nM | N#Cc1c(C2CCCNC2)cc(-c2c(O)cccc2OCc2ccc(F)cc2)nc1N (centres unmarked) [Example 2-28]
54 | < 1000 nM | CC(C)Oc1cccc(O)c1-c1cc(C2CCCNC2)c(C#N)c(N)n1 (centres unmarked) [Example 2-54]
55 | < 1000 nM | CC(C)COC(=O)N1Cc2c(C3CCCNC3)cc(-c3c(O)cccc3OCC3CC3)nc2NC1=O (centres unmarked) [Example 24-06]
56 | < 1000 nM | Cc1cc(-c2c(O)cccc2OCC2CC2)nc2c1COC(=O)N2 [Example 18-09]
57 | < 1000 nM | NC(=O)N1Cc2c(C3CCCNC3)cc(-c3c(O)cccc3OCC3CC3)nc2NC1=O (centres unmarked) [Example 24-10]
58 | > 10000 nM | O=C1Nc2nc(-c3c(O)cccc3O)cc(C3CCNCC3)c2CO1 [Example 18-12]
59 | < 1000 nM | CC(C)OC(=O)NCc1c(C2CCCNC2)cc(-c2c(O)cccc2OCC2CC2)nc1N (centres unmarked) [Example 23-08]
60 | < 1000 nM | O=C1Nc2nc(-c3ncccc3O)cc(C3CCCNC3)c2CO1 (centres unmarked) [Example 18-08]
61 | < 1000 nM | CC(C)(C)COc1cccc(O)c1-c1cc(C2CCCNC2)c(CO)c(N)n1 (centres unmarked) [Example 12-04]
62 | < 1000 nM | N#Cc1c(C2CCCNC2)cc(-c2c(O)cccc2OCc2ccc(F)cc2F)nc1N (centres unmarked) [Example 2-26]

Row | IC50 | Compound
63 | < 1000 nM | CCCOc1cccc(O)c1-c1cc(C2CCCNC2)c(C#N)c(N)n1 (centres unmarked) [Example 2-55]
64 | < 1000 nM | CC(C)COc1cccc(O)c1-c1cc(C2CCCNC2)c(C#N)c(N)n1 (centres unmarked) [Example 2-59]
65 | < 1000 nM | CC(=O)NCc1c(C2CCCNC2)cc(-c2ccccc2O)nc1N (centres unmarked) [Example 23-04]
66 | < 1000 nM | CC(C)(C)COC(=O)N1Cc2c(C3CCCNC3)cc(-c3c(O)cccc3OCC3CC3)nc2NC1=O (centres unmarked) [Example 24-07]
67 | < 1000 nM | N#Cc1c(C2CCCNC2)cc(-c2c(O)cccc2OCc2ncon2)nc1N (centres unmarked) [Example 2-48]
68 | < 1000 nM | CCCOc1cccc(O)c1-c1cc(C2CCNCC2)c2c(n1)NC(=O)OC2 [Example 18-14]
69 | < 1000 nM | COc1cccc(O)c1-c1cc(C2CCCNC2)c(C#N)c(N)n1 (centres unmarked) [Example 2-57]
70 | 1000 to 10000 nM | Nc1nc(-c2c(O)cccc2OCc2ccccc2)cc(C2CCCNC2)c1CO (centres unmarked) [Example 12-02]
71 | < 1000 nM | CCCOc1cccc(O)c1-c1cc(C2CCCNC2)c2c(n1)NC(=O)OC2 (centres unmarked) [Example 18-11]
72 | < 1000 nM | CC(C)OC(=O)N1Cc2c(C3CCCNC3)cc(-c3c(O)cccc3OCC3CC3)nc2NC1=O (centres unmarked) [Example 24-05]
73 | < 1000 nM | C=CCOc1cccc(O)c1-c1cc(C2CCCNC2)c(C#N)c(N)n1 (centres unmarked) [Example 2-56]
74 | 1000 to 10000 nM | O=C1Nc2nc(-c3c(O)cccc3OCc3ccccc3)cc(C3CCNCC3)c2CO1 [Example 18-16]
75 | < 1000 nM | O=C1Nc2nc(-c3c(O)cccc3OCC3CC3)cc(C3CCNCC3)c2CO1 [Example 18-13]
76 | < 1000 nM | CCOc1cccc(O)c1-c1cc(C2CCCNC2)c(C#N)c(N)n1 (centres unmarked) [Example 2-58]
77 | < 1000 nM | CN(C)C(=O)N1Cc2c(C3CCCNC3)cc(-c3c(O)cccc3OCC3CC3)nc2NC1=O (centres unmarked) [Example 24-08]
78 | 1000 to 10000 nM | Cc1ccccc1COc1cccc(O)c1-c1cc(C2CCCNC2)c(C#N)c(N)n1 (centres unmarked) [Example 2-06]
79 | < 1000 nM | O=C1Nc2nc(-c3c(O)cccc3F)cc(C3CCCNC3)c2CO1 (centres unmarked) [Example 18-07]
80 | < 1000 nM | CCCOc1cccc(O)c1-c1cc(C2CCCNC2)c(CO)c(N)n1 (centres unmarked) [Example 12-03]
